Experimental data from paper PMC7401273, “Unexpected Enhancement of HDACs Inhibition by MeS Substitution at C-2 Position of Fluoro Largazole” (Marine Drugs, 2020).
Like-named read-outs stand apart in the source and are kept apart here.

What was measured:
[1] = target: T1, recombinant human HDAC2 (Homo sapiens, UniProt Q92769); set-up: method as in PMID 31163697; conditions: previously reported data; cited from earlier work
T1 construct: purchased BPS Biosciences

[2] = target: T2, recombinant human HDAC1 (Homo sapiens, UniProt Q13547); set-up: method as in PMID 31163697; conditions: previously reported data, cited from earlier work; for Selectivity (HDAC1/6): selectivity of HDAC1 over HDAC6
T2 construct: purchased BPS Biosciences
T2 sequence (Q13547 whole entry): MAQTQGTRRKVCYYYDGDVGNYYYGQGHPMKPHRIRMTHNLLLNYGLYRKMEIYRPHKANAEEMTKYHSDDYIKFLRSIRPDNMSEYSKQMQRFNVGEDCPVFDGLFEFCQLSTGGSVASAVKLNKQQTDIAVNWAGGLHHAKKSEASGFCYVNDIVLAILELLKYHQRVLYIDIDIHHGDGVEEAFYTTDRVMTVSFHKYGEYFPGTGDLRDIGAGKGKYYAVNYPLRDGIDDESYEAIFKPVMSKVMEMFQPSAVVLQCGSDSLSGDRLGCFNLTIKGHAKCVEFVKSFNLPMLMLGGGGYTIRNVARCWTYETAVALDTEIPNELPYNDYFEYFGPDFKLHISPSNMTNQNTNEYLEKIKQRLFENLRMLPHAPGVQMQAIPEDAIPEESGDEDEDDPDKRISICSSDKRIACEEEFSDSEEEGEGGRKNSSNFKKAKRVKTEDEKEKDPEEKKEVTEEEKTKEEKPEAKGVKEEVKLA

[3] = target: T3, recombinant human HDAC6 (Homo sapiens, UniProt Q9UBN7); set-up: method as in PMID 31163697; conditions: previously reported data; cited from earlier work
T3 construct: purchased BPS Biosciences
T3 sequence (Q9UBN7 1-1215): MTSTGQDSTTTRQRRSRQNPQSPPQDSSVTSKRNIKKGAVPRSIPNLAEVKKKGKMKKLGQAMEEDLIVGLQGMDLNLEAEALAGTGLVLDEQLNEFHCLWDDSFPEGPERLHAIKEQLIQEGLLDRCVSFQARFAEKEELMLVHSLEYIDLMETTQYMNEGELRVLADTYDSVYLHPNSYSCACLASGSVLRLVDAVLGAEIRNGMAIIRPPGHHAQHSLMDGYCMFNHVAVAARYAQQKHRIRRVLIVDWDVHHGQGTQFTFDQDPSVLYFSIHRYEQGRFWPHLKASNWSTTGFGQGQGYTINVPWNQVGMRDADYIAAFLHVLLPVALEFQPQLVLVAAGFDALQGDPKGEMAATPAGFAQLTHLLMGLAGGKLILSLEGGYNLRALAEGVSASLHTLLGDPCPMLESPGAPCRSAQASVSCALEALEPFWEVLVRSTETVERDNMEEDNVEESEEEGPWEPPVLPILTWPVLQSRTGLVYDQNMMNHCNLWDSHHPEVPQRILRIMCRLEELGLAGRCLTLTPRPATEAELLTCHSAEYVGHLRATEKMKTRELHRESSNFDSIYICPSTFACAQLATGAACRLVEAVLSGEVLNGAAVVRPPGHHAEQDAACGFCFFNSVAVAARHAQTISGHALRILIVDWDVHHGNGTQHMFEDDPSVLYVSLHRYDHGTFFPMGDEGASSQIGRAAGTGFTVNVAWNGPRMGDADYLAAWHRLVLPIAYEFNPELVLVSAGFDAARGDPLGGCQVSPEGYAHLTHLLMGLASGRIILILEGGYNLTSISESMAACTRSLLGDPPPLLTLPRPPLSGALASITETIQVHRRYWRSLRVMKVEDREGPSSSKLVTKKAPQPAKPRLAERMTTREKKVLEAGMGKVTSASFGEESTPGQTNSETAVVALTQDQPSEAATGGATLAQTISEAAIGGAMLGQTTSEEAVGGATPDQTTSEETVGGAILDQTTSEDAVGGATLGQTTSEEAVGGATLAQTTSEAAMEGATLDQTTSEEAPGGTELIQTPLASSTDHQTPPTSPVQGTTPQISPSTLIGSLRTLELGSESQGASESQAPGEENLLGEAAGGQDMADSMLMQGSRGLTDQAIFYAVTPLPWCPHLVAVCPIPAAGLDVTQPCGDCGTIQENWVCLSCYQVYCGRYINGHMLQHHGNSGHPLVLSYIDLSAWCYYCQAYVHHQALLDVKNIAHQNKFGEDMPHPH

[4] = target: T4, recombinant human HDAC8 (Homo sapiens, UniProt Q9BY41); set-up: method as in PMID 31163697; conditions: previously reported data; cited from earlier work
T4 construct: purchased BPS Biosciences
T4 sequence (Q9BY41 1-377): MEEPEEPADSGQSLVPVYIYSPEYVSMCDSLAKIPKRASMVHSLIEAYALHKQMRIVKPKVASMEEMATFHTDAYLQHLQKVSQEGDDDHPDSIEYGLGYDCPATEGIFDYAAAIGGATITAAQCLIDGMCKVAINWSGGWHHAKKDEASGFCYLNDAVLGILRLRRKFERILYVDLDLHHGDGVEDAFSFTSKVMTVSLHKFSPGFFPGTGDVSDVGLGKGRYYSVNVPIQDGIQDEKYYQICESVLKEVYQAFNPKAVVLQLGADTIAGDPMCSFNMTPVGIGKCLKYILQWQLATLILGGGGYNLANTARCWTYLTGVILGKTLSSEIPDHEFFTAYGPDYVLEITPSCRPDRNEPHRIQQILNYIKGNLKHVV

[5] = target: T5, recombinant human HDAC3 (Homo sapiens, UniProt O15379); set-up: method as in PMID 31163697; conditions: previously reported data; cited from earlier work
T5 construct: purchased BPS Biosciences
T5 sequence (O15379 whole entry): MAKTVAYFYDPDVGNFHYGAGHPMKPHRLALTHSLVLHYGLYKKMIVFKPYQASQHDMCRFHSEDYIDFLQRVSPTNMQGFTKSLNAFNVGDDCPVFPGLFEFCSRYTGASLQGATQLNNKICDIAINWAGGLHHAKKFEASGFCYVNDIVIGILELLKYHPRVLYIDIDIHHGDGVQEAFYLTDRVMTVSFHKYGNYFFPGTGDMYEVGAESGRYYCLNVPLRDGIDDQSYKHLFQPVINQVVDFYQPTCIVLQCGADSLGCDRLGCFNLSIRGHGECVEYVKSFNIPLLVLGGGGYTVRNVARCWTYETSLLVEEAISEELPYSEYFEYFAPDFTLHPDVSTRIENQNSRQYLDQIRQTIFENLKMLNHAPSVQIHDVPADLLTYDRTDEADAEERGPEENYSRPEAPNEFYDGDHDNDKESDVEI
T5 sequence (Q9Y618 395-489 partner limits assumed): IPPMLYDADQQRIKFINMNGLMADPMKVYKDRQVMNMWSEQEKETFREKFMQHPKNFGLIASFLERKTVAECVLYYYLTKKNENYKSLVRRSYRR

[6] = target: T2, recombinant human HDAC1; assay: recombinant human HDAC1 enzymatic assay; assay type: biochemical; conditions: 10-dose IC50 mode in duplicate, three-fold serial dilution
Protocol: (§1) The assays were carried out by Shanghai ChemPartner Co., Ltd (Shanghai, China), according to our previous method. Briefly, different concentrations of compounds were incubated with recombinant human HDAC1, HDAC2, HDAC3, HDAC6 and HDAC8 (BPS Biosciences, San Diego, CA, USA) at room temperature for 15 min, which was followed by adding Ac-peptide-AMC substrates to initiate the reaction in Tris-based assay buffer. Reaction mixtures were incubated at room temperature for 60 min in HDAC1, HDAC2, HDAC3 and HDAC6 assays, and were incubated for 240 min in HDAC8 assay. Then, the stop solution containing trypsin was added. The coupled reaction was incubated for another 90 min at 37 °C. Fluorescent AMC released from substrate was measured in SynergyMx (BioTek, Winooski, VT, US) using filter sets as excitation = 355 nm and emission = 460 nm. IC50 values were calculated by GraphPad Prism software (7.0 version., GraphPad Software, San Diego, CA, USA).

[7] = target: T1, recombinant human HDAC2; assay: recombinant human HDAC2 enzymatic assay; assay type: biochemical; conditions: 10-dose IC50 mode in duplicate, three-fold serial dilution
Protocol: The assays were carried out by Shanghai ChemPartner Co., Ltd (Shanghai, China), according to our previous method [23, 24]. Briefly, different concentrations of compounds were incubated with recombinant human HDAC1, HDAC2, HDAC3, HDAC6 and HDAC8 (BPS Biosciences, San Diego, CA, USA) at room temperature for 15 min, which was followed by adding Ac-peptide-AMC substrates to initiate the reaction in Tris-based assay buffer. Reaction mixtures were incubated at room temperature for 60 min in HDAC1, HDAC2, HDAC3 and HDAC6 assays, and were incubated for 240 min in HDAC8 assay. Then, the stop solution containing trypsin was added. The coupled reaction was incubated for another 90 min at 37 °C. Fluorescent AMC released from substrate was measured in SynergyMx (BioTek, Winooski, VT, US) using filter sets as excitation = 355 nm and emission = 460 nm. IC50 values were calculated by GraphPad Prism software (7.0 version., GraphPad Software, San Diego, CA, USA).

[8] = target: T5, recombinant human HDAC3; assay: recombinant human HDAC3 enzymatic assay; assay type: biochemical; conditions: 10-dose IC50 mode in duplicate, three-fold serial dilution
Protocol: as §1

[9] = target: T4, recombinant human HDAC8; assay: recombinant human HDAC8 enzymatic assay; assay type: biochemical; conditions: 10-dose IC50 mode in duplicate, three-fold serial dilution
Protocol: as §1

[10] = target: T3, recombinant human HDAC6; assay: recombinant human HDAC6 enzymatic assay; assay type: biochemical; conditions: 10-dose IC50 mode in duplicate, three-fold serial dilution
Protocol: as §1

[11] = system: HCT116 cells; assay: in vitro growth inhibition (MTT), HCT116 cells; assay type: cell-based; conditions: Homo sapiens, HCT-116, 72 h, at least seven-dose, duplicate
Protocol: (§2) Eca-109, Bel 7402 and U937 cell lines were purchased from ATCC (Manassas, VA, USA), and the other tested cell lines were obtained from the Shanghai Institute for Biological Sciences, Chinese Academy of Sciences (Shanghai, China). MDA-MB-231, Hela, Eca-109 and Bel 7402 cells were cultured in DMEM medium supplemented with 10% heat-inactivated fetal bovine serum, 100 U/mL penicillin and 100 μg/mL streptomycin (Beyotime Biotech, Shanghai, China). A549 cells were cultured in F-12K medium supplemented with 10% heat-inactivated fetal bovine serum, 100 U/mL penicillin and 100 μg/mL streptomycin. HCT116 and SK-OV-3 cells were cultured in McCoy’s 5A medium supplemented with 10% heat-inactivated fetal bovine serum, 100 U/mL penicillin and 100 μg/mL streptomycin. U937 cells were cultured in RPMI-1640 medium supplemented with 10% heat inactivated fetal bovine serum, 100 U/mL penicillin and 100 μg/mL streptomycin. All cells were cultured at 37 °C in humidified air containing 5% CO2. According to our previous method, A549, HCT116, MDA-MB-231, SK-OV-3, Hela, Eca-109, Bel 7403 and U937 (600,000 cells/well) were seeded in 96-well plates and incubated for 24 h before being treated with various concentration of compounds or solvent control. Cells were further incubated for 72 h and then treated with MTT and incubated for another 3 h. The media was then removed and 100 μL DMSO was added to each well. The absorbance at 550 nm was measured by a SpectraMAX340 microplate reader (Molecular Devices, San Jose, CA, USA) with a reference wavelength at 690 nm. Adriamycin was used as a positive control in the assay.

[12] = system: MDA-MB-231 cells; assay: in vitro growth inhibition (MTT), MDA-MB-231 cells; assay type: cell-based; conditions: Homo sapiens, 72 h, at least seven-dose, duplicate
Protocol: as §2

[13] = system: Eca-109 cells; assay: in vitro growth inhibition (MTT), Eca-109 cells; assay type: cell-based; conditions: Homo sapiens, 72 h, at least seven-dose, duplicate
Protocol: as §2, with “Cells were further incubated for 72 h and then treated with MTT and incubated for another 3 h. The media was then removed and 100 μL DMSO was added to each well.” left out, “Adriamycin was used as a positive control in the assay.” left out

[14] = system: U937 cells; assay: in vitro growth inhibition (MTT), U937 cells; assay type: cell-based; conditions: Homo sapiens, U-937, 72 h, at least seven-dose, duplicate
Protocol: as §2, with “Cells were further incubated for 72 h and then treated with MTT and incubated for another 3 h. The media was then removed and 100 μL DMSO was added to each well.” left out, “Adriamycin was used as a positive control in the assay.” left out

[15] = system: A549, HCT116 and SK-OV-3 cells; assay: in vitro growth inhibition (MTT), range over three cell lines; assay type: cell-based; conditions: towards A549, HCT116 and SK-OV-3 cells
Protocol: as §2, with “Cells were further incubated for 72 h and then treated with MTT and incubated for another 3 h. The media was then removed and 100 μL DMSO was added to each well.” left out, “Adriamycin was used as a positive control in the assay.” left out

[16] = system: SK-OV-3 cells; assay: in vitro growth inhibition (MTT), SK-OV-3 cells; assay type: cell-based; conditions: Homo sapiens, 72 h, at least seven-dose, duplicate
Protocol: as §2

[17] = system: Hela cells; assay: in vitro growth inhibition (MTT), Hela cells; assay type: cell-based; conditions: Homo sapiens, 72 h, at least seven-dose, duplicate
Protocol: as §2, with “Cells were further incubated for 72 h and then treated with MTT and incubated for another 3 h. The media was then removed and 100 μL DMSO was added to each well.” left out, “Adriamycin was used as a positive control in the assay.” left out

[18] = system: A549 cells; assay: in vitro growth inhibition (MTT), A549 cells; assay type: cell-based; conditions: Homo sapiens, 72 h, at least seven-dose, duplicate
Protocol: as §2

[19] = system: Bel 7402 cells; assay: in vitro growth inhibition (MTT), Bel 7402 cells; assay type: cell-based; conditions: Homo sapiens, 72 h, at least seven-dose, duplicate
Protocol: as §2, with “Cells were further incubated for 72 h and then treated with MTT and incubated for another 3 h. The media was then removed and 100 μL DMSO was added to each well.” left out, “Adriamycin was used as a positive control in the assay.” left out

T1 sequence (Q92769 whole entry): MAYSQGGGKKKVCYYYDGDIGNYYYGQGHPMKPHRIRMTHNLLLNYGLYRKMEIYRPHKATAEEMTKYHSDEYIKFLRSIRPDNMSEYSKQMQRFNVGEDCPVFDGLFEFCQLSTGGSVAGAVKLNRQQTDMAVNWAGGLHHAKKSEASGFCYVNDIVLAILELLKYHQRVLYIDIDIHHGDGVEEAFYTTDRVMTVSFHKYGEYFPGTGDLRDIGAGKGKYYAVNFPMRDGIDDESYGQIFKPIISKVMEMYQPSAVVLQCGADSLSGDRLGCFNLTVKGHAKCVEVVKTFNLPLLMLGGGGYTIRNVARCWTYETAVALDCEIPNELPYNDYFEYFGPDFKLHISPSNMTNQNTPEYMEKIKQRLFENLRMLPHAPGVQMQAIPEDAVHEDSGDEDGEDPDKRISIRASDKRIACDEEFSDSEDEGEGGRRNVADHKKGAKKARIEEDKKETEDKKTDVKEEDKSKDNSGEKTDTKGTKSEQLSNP

Row | Compound | IC50 [1] [nM] | IC50 [2] [nM] | Selectivity (HDAC1/6) [2] | IC50 [3] [nM] | IC50 [4] [nM] | IC50 [5] [nM] | IC50 [11] [nM] | IC50 [12] [nM] | IC50 [13] [nM] | IC50 [14] [nM] | IC50 [16] [nM] | IC50 [17] [nM] | IC50 [18] [nM] | IC50 [19] [nM] | other results
1 | CC(C)C1NC(=O)C2(C)CSC(=N2)c2csc(n2)CNC(=O)CC(C(F)=CCCS)OC1=O (centres unmarked) [Compound 15a] | 21 ± 0.3 | 4.39 ± 0.17 | 68 | 300 ± 5 | 8.38 ± 2.46 | 39.2 ± 2.3 |  |  |  |  |  |  |  |  | 
2 | CC12CSC(=N1)c1csc(n1)CNC(=O)CC(C(F)=CCCS)OC(=O)C(Cc1ccccc1)NC2=O (centres unmarked) [Compound 15b] | 16.3 ± 0.4 | 4.24 ± 0.38 | 80 | 338 ± 17 | 17.5 ± 4.2 | 37.1 ± 0.8 |  |  |  |  |  |  |  |  | 
3 | CSCC1NC(=O)C2(C)CSC(=N2)c2csc(n2)CNC(=O)CC(C(F)=CCCS)OC1=O [Compound 15c, (1^2Z,2^2Z,2^4R,8S)-8-((Z)-1-fluoro-4-mercaptobut-1-en-1-yl)-2^4-methyl-5-((methylthio)methyl)-2^4,2^5-dihydro-7-oxa-4,11-diaza-1(4,2),2(2,4)-dithiazolacyclododecaphane-3,6,10-trione] |  |  |  |  |  |  |  |  |  |  |  |  |  |  | IC50 [6]: 0.27 ± 0.02 nM; IC50 [7]: 1.33 ± 0.02 nM; IC50 [8]: 2.33 ± 0.15 nM; IC50 [9]: 0.44 ± 0.16 nM; IC50 [10]: 23.9 nM
4 | CCCCCCCC(=O)SCC/C=C(\F)[C@@H]1CC(=O)NCc2nc(cs2)C2=N[C@@](C)(CS2)C(=O)N[C@@H](CSC)C(=O)O1 [Compound 16c, S-((Z)-4-fluoro-4-((1^2Z,2^2Z,2^4R,5R,8S)-2^4-methyl-5-((methylthio)methyl)-3,6,10-trioxo-2^4,2^5-dihydro-7-oxa-4,11-diaza-1(4,2),2(2,4)-dithiazolacyclododecaphane-8-yl)but-3-en-1-yl) octanethioate] |  |  |  |  |  |  | 1410 ± 540 | > 10000 | 90 ± 20 | 80 ± 20 | 3130 ± 500 | 100 ± 10 | 2920 ± 530 | 250 ± 70 | IC50 [15]: 1410 to 3130 nM
5 | CCCCCCCC(=O)SCC/C=C(\F)[C@@H]1CC(=O)NCc2nc(cs2)C2=N[C@@](C)(CS2)C(=O)NCC(=O)O1 [Compound 16d, S-((Z)-4-fluoro-4-((1^2Z,2^2Z,2^4R,8S)-2^4-methyl-3,6,10-trioxo-2^4,2^5-dihydro-7-oxa-4,11-diaza-1(4,2),2(2,4)-dithiazolacyclododecaphane-8-yl)but-3-en-1-yl) octanethioate] |  |  |  |  |  |  | 6620 ± 1860 | > 10000 |  |  | > 10000 |  | > 10000 |  | 
6 | CCCCCCCC(=O)SCC/C=C/[C@@H]1CC(=O)NCc2nc(cs2)C2=N[C@@](C)(CS2)C(=O)N[C@@H](C(C)C)C(=O)O1 [largazole] |  |  |  |  |  |  | 110 ± 10 | 4750 ± 1950 | 100 | 20 | 250 ± 170 | 170 ± 10 | 520 ± 170 | 170 ± 20 | 
